This note sets out measurements from patent publication EP1800684A1, “Novel alkyl phospholipid derivatives and uses thereof” (Zentaris GmbH, priority 2005, dated 2007).

Holding throughout (type): cell-based
Assay [1] relates to Trypanosoma brucei rhodesiense (strain STIB900). The assay can be described thus: In vitro drug activity assay, protozoon B (bloodstream form trypomastigotes, Alamar Blue). Conditions: incubated for 72 hours. On the procedure:
Trypanosoma brucei rhodesiense STIB900 bloodstream form trypomastigotes were maintained in HMI-18 medium (Hirumi H, Hirumi K, J Parasitol. 1989, 75(6):985-989) with 15% heat-inactivated fetal calf serum at 37°C, 5% CO2, humidified atmosphere. Trypomastigotes were washed and resuspended in fresh medium at a concentration of 2 x 10^5 mL. Test compounds were given to the trypomastigotes and plates were incubated for 72 hours at 37°C, 5% CO2, humidified atmosphere. At 72 hours the plates were assessed microscopically before Alamar Blue was added (Raz et al., Acta Trop. 1997, 68: 139-147). Plates were read after 5 to 6 hours at EX/EM 530/585 nm with a filter cutoff at 550 nm. ED50 values were calculated with Msxlfit (IDBS).
(§1) The following protozoa were assessed: • A) Trypanosoma cruzi (Tulahuan-LACZ amstigotes in PEM, Lorente SO et al., Antimicrobial agents and chemotherapy 2004, 48(8): 2937-2950; Buckner et al., Infection and Immunity 1999, 67(1): 403-409; Buckner et al., Antimicrobial Agents and Chemotherapy 1996, 40(11): 2592-2597) • B) Trypanosoma brucei rhodesiense (strain STIB900, Lorente SO et al., Antimicrobial agents and chemotherapy 2004, 48(8): 2937-2950; Habtemariam S, BMC Pharmacology 2003, 3:6) • C) Plasmodium falciparum (strain K1, Korsinczky M et al., Antimicrobial agents and chemotherapy 2000, 44(8): 2100-2108; Thaitong S and Beale GH, Trans. R. Soc. Trop. Med. Hyg. 1981, 75: 271-273; Trager W and Jensen JB, Science 1976, 193: 673-675) • D) Plasmodium falciparum (strain 3D7, Mu et al., PLoS Biology 2005, 3(10): e335)

The test system of assay [2] is Candida parapsilosis (ATCC 22019). The experiment in a line: Anti-fungal susceptibility test (microdilution), fungus D. The following applies: ATCC22019, no visible growth after 48 hours at 35° C, read-out: MIC. On the procedure:
(§2) The antifungal activities of the test compounds (compounds of the invention and known prior art compounds) were measured according to standard microdilution methods (Cryptococcus/Aspergillus: Ghannoum et al., Journal of Clinical Microbiology 1992, 30 (11): 2881-2886; Candida: Reference method for broth dilution susceptibility testing of yeast: proposed standard, NCCLS document M27-P, National Committee for Clinical Laboratory Standards 1992, Villanova, Pa).
(§3) A serial dilution series starting from 64 µg/mL test compound per well down to 0.125 µg/mL test compound per well was applied for each test compound on each fungus. The MIC of each compound was defined as the concentration which produces no visible growth after 48 hours (Candida) and 72 hours (Cryptococcus, Aspergillus) of culture at 35° C.
(§4) The following fungi were assessed: • A) Candida albicans (ATCC 10231) • B) Candida albicans (ATCC 90028) • C) Candida albicans (strain TS3, Shrikantha et al., Journal of Bacteriology 2000, 182(6):1580-1591) • D) Candida parapsilosis (ATCC 22019) • E) Cryptocoocus neoformans (ATCC 90112) • F) Cryptocoocus neoformans (strain H99; Ganendren et al., Antimicrobial Agents and Chemotherapy, 2004, 48(5):1561-1569) • G) Cryptocoocus gattii (ATCC 32608) • H) Aspergillus fumigatus (ATCC 204305) • I) Aspergillus fumigatus (strain 322-384)

Assay [3] relates to PC3 (ATCC CRL1435, human prostate carcinoma). The assay can be described thus: XTT cytotoxicity assay, PC3 cells. Conditions: PC-3, 48 h, 2 days of continuous drug exposure. The procedure: Human tumor cell lines KB/HeLa (ATCC CCL17, human cervix carcinoma), PC3 (ATCC CRL1435, human prostate carcinoma) and RKOp21 (human colon adenocarcinoma) cells were used in an automated XTT screening assay for the assessment of cytotoxicity.
The XTT assay quantifies cellular metabolic activity which correlates with cell viability and cell number. Test compounds (selected compounds of the invention and known substances as controls) are dissolved in culture medium at 600µM and added to the tumor cells in 10 different concentrations in a semi-logarithmic fashion starting from 100 µM as highest concentration.
48h later cellular metabolic activity of cells treated with test compounds is quantified by measurement of the absorbance at 490nm (conversion of XTT dye) in comparison to untreated control cells (100% viability).
KB/HeLa and PC3 cells were cultivated in RPMI medium supplemented with 10% heat inactivated fetal calf serum, 2 mM glutamine, 100 U/ml penicillin, and 100 µg/ml streptomycin. RKOp21 cells were grown in DMEM supplemented with 10% heat inactivated fetal calf serum, 2 mM glutamine, 100 U/ml penicillin, and 100 µg/ml streptomycin. All cells were cultured at 37°C in 5% CO2 humidified air.
On the first day of the experiment cells were harvested from exponential phase cultures by trypsination, counted and plated into 96 well flat-bottom micro titer plates depending on the cell line as listed below:
After a 24h recovery to allow the cells to resume exponential growth, the test compounds were diluted immediately prior to use and transferred in 25µl volume to the wells.
Following 2 days of continuous drug exposure 50µl of freshly prepared XTT-PMS solution (2% […] PMS in PBS + 98% 1 mg/ml XTT in RPMI 1640 without phenol red) was added to the wells. To measure the proportion of living cells, the cells were incubated for 3 h with XTT-PMS reagent at 37°C, 5% CO2, humidified atmosphere allowing to form the formazan salt. The amount of soluble formazan salt produced by cellular reduction of XTT is quantified by measuring the absorbance at 490nm using the Biomek® 2000 ELISA plate reader.
%-inhibition (cytotoxicity) of each test compound was calculated in relation to untreated control cells. Inhibition curves were generated and IC50 values calculated by using GraphPad Prism.

Assay [4] deals with Cryptocoocus gattii (ATCC 32608). The assay can be described thus: Anti-fungal susceptibility test (microdilution), fungus G. The following applies: fungus G; no visible growth after 72 hours at 35° C; read-out: MIC. The procedure:
as §2, §3, §4

The test system of assay [5] is Trypanosoma cruzi (Tulahuan-LACZ amstigotes in PEM). The assay can be described thus: In vitro drug activity assay, protozoon A (amastigotes in murine peritoneal macrophages, CPRG readout). The following applies: infected macrophages exposed for 3 days. The procedure:
Murine (CD1) peritoneal macrophages were harvested 24 hours after starch induction and dispensed into 96-well plates at a concentration of 4 x 10^5 mL. After 24 hours, the cells were infected with Trypanosoma cruzi Tulahuan LAC-Z amastigotes (grown and cultured according to Buckner et al., Infection and Immunity 1999, 67(1): 403-409). 24 hours later, the infected cells were exposed to the test compounds (compounds of the invention as well as known prior art compounds) for 3 days and 50 µL of 500 µM CPRG-1% Nonidet P-40 was added to each well. The plates were read after 2 to 5 hours at 570 nm (Buckner et al., Antimicrobial Agents and Chemotherapy 1996, 40(11): 2592-2597). ED50 values were calculated with Msxlfit (IDBS).
as §1

In brackets after ≈: the same amount, converted by molar mass.

`CCCCCCCCCCCCCCCCOP(=O)([O-])OCC[N+]1(C)CCCCC1` [Compound 2, Phosphoric acid 2-(1-methyl-piperidin-1-yl)-ethyl ester hexadecyl ester]: the “ED50 (µg/mL)” value is reported as 17,50 µg/mL in assay [1] and 0,50 µg/mL in assay [5]. The figures for the MIC in assay [2] and in assay [4] were 2 µg/mL (≈ 4.47 µM) and 0.75 µg/mL (≈ 1.68 µM), respectively. The molecule further showed an IC50 in assay [3] of 19.6 µM.
